The values below come from publication PMC3172881 (Cancer cell, 2011).

pEC50: −log10 of the molar value.

In data set [1] the test system is mEP^Ephb2-LUC brain tumors. In words: Orthotopic allograft efficacy study, bioluminescence and survival. The data set is classed as in vivo, mouse. The conditions noted are these: for survival of mice harbouring mEP^Ephb2-LUC tumors / rate of mEP^Ephb2-LUC tumor growth: 5-FU 75 mg/kg i.v. once weekly, bortezomib 0.8 mg/kg i.v. twice weekly; for rate of mEP^Ephb2-LUC tumor growth: bioluminescence.

Data set [2] is described as follows: 5-FU pharmacokinetics, tumor microdialysis and plasma. In kind it is in vivo, mouse.
Data set [3] is described as follows: Tolerability of 5-FU infusion via Alzet pumps. The data set is classed as in vivo, mouse. To be noted: 13 mg/kg/hour via Alzet pumps; unacceptably toxic.
For data set [4], the system named is subventricular zone (SVZ) of Prom1^+/C-L mice. In words: In vivo NSC toxicity: ApoTag, DCX and LacZ. The conditions noted are these: for number of Prom1^+ cells in the SVZ / number of apoptotic cells in the SVZ: ±SEM; for number of apoptotic cells in the SVZ: ApoTag.
Another data set concerns mEP^Ephb2 cells. In words: HTS activity against ependymoma cells. In kind it is cell-based, mouse. To be noted: result in words.
Another data set has as its system IGF1R. Description: Western blot of IGF1R signalling in mEP^Ephb2 cells stimulated with IGF2. The data set is classed as cell-based, mouse. On the technique in general: In western blotting, separated proteins are transferred to a membrane and probed.
Data set [5] concerns mEP^Ephb2, mBT^NICD1, NSC^wt and NSC^null cells. In kind it is cell-based, mouse. The conditions noted are these: for cell-selective activity class in HTS: class from average EC50 in each of four cell types, secondary screen.

As to `O=c1[nH]cc(F)c(=O)[nH]1` [5-FU, 5-fluorouracil], in data set [1], the “survival of mice harbouring mEP^Ephb2-LUC tumors” value is listed as “significantly prolonged” and the “rate of mEP^Ephb2-LUC tumor growth” value is “halved”. For the same compound, in data set [1] (delivered subcutaneously via Alzet pumps), the “activity against mEP^Ephb2-LUC brain tumors” value is “inactive”. Also, the “time the tumor concentration was maintained” value in data set [2] (13 mg/kg/hour via Alzet pumps, ~10 μM) is on record as “over 24 hours”. The “time brain tumor concentration remained above 10μM” value in data set [2] (intravenous bolus 75 mg/kg) is “approximately 1 hour”. Also, in data set [2] (intravenous bolus 75 mg/kg, microdialysis, ±79 S.D.), the “peak concentration in brain tumors” value came to 800 µM. Also, in data set [2] (subcutaneous infusion 1.03 mg/kg/hour), the tumor drug levels entry was “failed to generate detectable tumor drug levels”. For the same compound, the weight loss in data set [3] is not below 20%. Also, in data set [4] (four weeks of therapy), the “DCX^+ labelling in the SVZ” value is reported as “returned to control levels” and the “apoptotic labelling in the SVZ” value is “returned to control levels”. Further, in data set [4] (two weeks of therapy), the “area of DCX^+ neuroblast rests in the SVZ” value is 2.2 μm^2 per μm ventricular surfac, the “number of Prom1^+ cells in the SVZ” value was 35.1% and the “number of apoptotic cells in the SVZ” value is 12.0±1.7.
Take `COc1cc2c(cc1Nc1nc(Nc3ccsc3C(N)=O)c3cc[nH]c3n1)N(C(=O)CN(C)C)CCC2` [GSK2110236A]: the “activity against mEP^Ephb2 cells in HTS” value with mEP^Ephb2 cells is recorded as “potent inhibitor”. In addition, the “IGF1R and its downstream signal” value in the data set on IGF1R is “blocked”.
As to `C/C=C(\C)C(=O)O[C@H]1[C@H](OC(C)=O)[C@@]2(CO)C(CC1(C)C)C1=CC[C@@H]3[C@@]4(C)CC[C@H](O[C@@H]5O[C@H](C(=O)O)[C@@H](O[C@@H]6O[C@H](CO)[C@@H](O)[C@H](O)[C@H]6O)[C@H](O)[C@H]5O[C@@H]5O[C@H](CO)[C@@H](O)[C@H](O)[C@H]5O)[C@H](CO)C4CC[C@@]3(C)[C@@]1(C)C[C@H]2O` (stereo partly drawn) [beta-escin], the “cell-selective activity class in HTS” value in data set [5] is reported as “ependymoma selective”.
On to `CC(C)C[C@H](NC(=O)[C@H](Cc1ccccc1)NC(=O)c1cnccn1)B(O)O` [bortezomib], for which the “activity against mEP^Ephb2 cells in HTS” value in the data set on mEP^Ephb2 cells is reported as “highly potent”. In addition, in data set [1], the “survival of mice harbouring mEP^Ephb2-LUC tumors” value is recorded as “significantly prolonged” and the “rate of mEP^Ephb2-LUC tumor growth” value is “halved”. In data set [4] (four weeks of therapy), the “DCX^+ labelling in the SVZ” value was “returned to control levels”, the “Prom1^+ cell numbers in the SVZ relative to controls” value is recorded as more than 2.5 times, the “apoptotic labelling in the SVZ” value was “returned to control levels” and the “number of Prom1^+ cells in the SVZ” value was 57.8%. In data set [4] (two weeks of therapy), the “area of DCX^+ neuroblast rests in the SVZ” value is recorded as 6.0 μm^2 per μm ventricular surfac, the “number of Prom1^+ cells in the SVZ” value was 39.2% and the “number of apoptotic cells in the SVZ” value is 22.2±5.1.
With `N.N.O=C([O-])C1(C(=O)[O-])CCC1.[Pt+2]` [carboplatin], in the data set on mEP^Ephb2 cells, the “activity against mEP^Ephb2 cells in HTS” value is listed as “Neither carboplatin nor irinotecan were active”.
For `CCc1c2c(nc3ccc(OC(=O)N4CCC(N5CCCCC5)CC4)cc13)-c1cc3c(c(=O)n1C2)COC(=O)[C@]3(O)CC` [irinotecan], in the data set with mEP^Ephb2 cells, the “activity against mEP^Ephb2 cells in HTS” value is given as “Neither carboplatin nor irinotecan were active”.
Still for that read-out and setting: then `CS(=O)(=O)CCNCc1ccc(-c2ccc3ncnc(Nc4ccc(OCc5cccc(F)c5)c(Cl)c4)c3c2)o1` [lapatinib], with “inactive”.
The compound `CC[C@@]1(O)C(=O)OCc2c1cc1n(c2=O)Cc2cc3c(CN(C)C)c(O)ccc3nc2-1` [topotecan] had a negative-log EC50 (pEC50) in data set [5] (Mus musculus, 96 h) of 6.15 to 6.70. For the same compound, the “cell-selective activity class in HTS” value in data set [5] is given as “equipotent”.

As usually defined, the pEC50 is the EC50 on a negative log10 scale, so that one unit is a factor of ten.
